Source: patent US6358885B1, “Substituted phenylheterocyclic herbicides” (Mississippi State University, priority 1992, dated 2002)

Assays:
Assay in all cases: Test B preemergence/postemergence greenhouse plant response rating 0 to 10
Conditions in all cases: 0 to 10 scale
[1] = test system: crabgrass; format: in vivo, Digitaria spp.
Summary of the method: (§1)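 Test chemicals, dissolved in a non-phytotoxic solvent, were applied to soil at planting and, at the same time, over foliage of seedlings at the one to four leaf stage.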

[2] = test system: soybean; format: in vivo, Glycine max
Summary of the method: as §1

[3] = test system: sugar beet; format: in vivo, Beta vulgaris
Summary of the method: as §1

[4] = test system: sorghum; format: in vivo, Sorghum bicolor
Summary of the method: as §1

[5] = test system: wild buckwheat; format: in vivo, Polygonum convolvulus
Summary of the method: as §1

[6] = test system: velvetleaf; format: in vivo, Abutilon theophrasti
Summary of the method: as §1

[7] = test system: blackgrass; format: in vivo, Alopecurus myosuroides
Summary of the method: as §1

[8] = test system: barnyardgrass; format: in vivo, Echinochloa crus-galli
Summary of the method: as §1

[9] = test system: rice; format: in vivo, Oryza sativa
Summary of the method: as §1

[10] = test system: bedstraw; format: in vivo, Galium aparine
Summary of the method: as §1

[11] = test system: cocklebur; format: in vivo, Xanthium pensylvanicum
Summary of the method: as §1

[12] = test system: purple nutsedge; format: in vivo, Cyperus rotundus
Summary of the method: as §1

[13] = test system: morningglory; format: in vivo, Ipomoea hederacea
Summary of the method: as §1

[14] = test system: giant foxtail; format: in vivo, Setaria faberii
Summary of the method: as §1

[15] = test system: chickweed; format: in vivo, Stellaria media
Summary of the method: as §1

[16] = test system: cheatgrass; format: in vivo, Bromus secalinus
Summary of the method: as §1

[17] = test system: cotton; format: in vivo, Gossypium hirsutum
Summary of the method: as §1

[18] = test system: lambsquarters; format: in vivo, Chenopodium album
Summary of the method: as §1

[19] = test system: wheat; format: in vivo, Triticum aestivum
Summary of the method: as §1

[20] = test system: barley; format: in vivo, Hordeum vulgare
Summary of the method: as §1

[21] = test system: wild oat; format: in vivo, Avena fatua
Summary of the method: as §1

[22] = test system: corn; format: in vivo, Zea mays
Summary of the method: as §1

[23] = test system: rape; format: in vivo, Brassica napus
Summary of the method: as §1

COCCN1C(=O)COc2cc(F)c(-c3nn4c(c3Cl)CCCC4)cc21 [Compound 53]
Plant response rating, Crabgrass ([1]; POSTEMERGENCE, Rate 10 g/ha): 3
Plant response rating, Crabgrass ([1]; POSTEMERGENCE, Rate 50 g/ha): 4
Plant response rating, Crabgrass ([1]; PREEMERGENCE, Rate 10 g/ha): 2
Plant response rating, Crabgrass ([1]; PREEMERGENCE, Rate 50 g/ha): 6
Plant response rating, Soybean ([2]; POSTEMERGENCE, Rate 10 g/ha): 9
Plant response rating, Soybean ([2]; POSTEMERGENCE, Rate 50 g/ha): 9
Plant response rating, Soybean ([2]; PREEMERGENCE, Rate 50 g/ha): 0
Plant response rating, Sugar beet ([3]; POSTEMERGENCE, Rate 10 g/ha): 10
Plant response rating, Sugar beet ([3]; POSTEMERGENCE, Rate 50 g/ha): 10
Plant response rating, Sugar beet ([3]; PREEMERGENCE, Rate 50 g/ha): 9
Plant response rating, Sorghum ([4]; POSTEMERGENCE, Rate 10 g/ha): 3
Plant response rating, Sorghum ([4]; POSTEMERGENCE, Rate 50 g/ha): 3
Plant response rating, Sorghum ([4]; PREEMERGENCE, Rate 50 g/ha): 6
Plant response rating, Wild buckwheat ([5]; POSTEMERGENCE, Rate 10 g/ha): 10
Plant response rating, Wild buckwheat ([5]; POSTEMERGENCE, Rate 50 g/ha): 10
Plant response rating, Wild buckwheat ([5]; PREEMERGENCE, Rate 50 g/ha): 9
Plant response rating, Velvetleaf ([6]; POSTEMERGENCE, Rate 10 g/ha): 9
Plant response rating, Velvetleaf ([6]; POSTEMERGENCE, Rate 50 g/ha): 10
Plant response rating, Velvetleaf ([6]; PREEMERGENCE, Rate 50 g/ha): 9
Plant response rating, Blackgrass ([7]; POSTEMERGENCE, Rate 10 g/ha): 5
Plant response rating, Blackgrass ([7]; POSTEMERGENCE, Rate 50 g/ha): 5
Plant response rating, Blackgrass ([7]; PREEMERGENCE, Rate 10 g/ha): 4
Plant response rating, Blackgrass ([7]; PREEMERGENCE, Rate 50 g/ha): 6
Plant response rating, Barnyardgrass ([8]; POSTEMERGENCE, Rate 10 g/ha): 3
Plant response rating, Barnyardgrass ([8]; POSTEMERGENCE, Rate 50 g/ha): 6
Plant response rating, Barnyardgrass ([8]; PREEMERGENCE, Rate 10 g/ha): 2
Plant response rating, Barnyardgrass ([8]; PREEMERGENCE, Rate 50 g/ha): 2
Plant response rating, Rice ([9]; POSTEMERGENCE, Rate 10 g/ha): 4
Plant response rating, Rice ([9]; POSTEMERGENCE, Rate 50 g/ha): 4
Plant response rating, Rice ([9]; PREEMERGENCE, Rate 50 g/ha): 1
Plant response rating, Bedstraw ([10]; POSTEMERGENCE, Rate 10 g/ha): 8
Plant response rating, Bedstraw ([10]; POSTEMERGENCE, Rate 50 g/ha): 10
Plant response rating, Bedstraw ([10]; PREEMERGENCE, Rate 10 g/ha): 8
Plant response rating, Bedstraw ([10]; PREEMERGENCE, Rate 50 g/ha): 9
Plant response rating, Cocklebur ([11]; POSTEMERGENCE, Rate 10 g/ha): 9
Plant response rating, Cocklebur ([11]; POSTEMERGENCE, Rate 50 g/ha): 10
Plant response rating, Cocklebur ([11]; PREEMERGENCE, Rate 10 g/ha): 0
Plant response rating, Cocklebur ([11]; PREEMERGENCE, Rate 50 g/ha): 1
Plant response rating, Nutsedge ([12]; POSTEMERGENCE, Rate 10 g/ha): 6
Plant response rating, Nutsedge ([12]; POSTEMERGENCE, Rate 50 g/ha): 6
Plant response rating, Nutsedge ([12]; PREEMERGENCE, Rate 50 g/ha): 0
Plant response rating, Morningglory ([13]; POSTEMERGENCE, Rate 10 g/ha): 9
Plant response rating, Morningglory ([13]; POSTEMERGENCE, Rate 50 g/ha): 10
Plant response rating, Morningglory ([13]; PREEMERGENCE, Rate 50 g/ha): 10
Plant response rating, Giant foxtail ([14]; POSTEMERGENCE, Rate 10 g/ha): 3
Plant response rating, Giant foxtail ([14]; POSTEMERGENCE, Rate 50 g/ha): 6
Plant response rating, Giant foxtail ([14]; PREEMERGENCE, Rate 10 g/ha): 2
Plant response rating, Giant foxtail ([14]; PREEMERGENCE, Rate 50 g/ha): 8
Plant response rating, Chickweed ([15]; POSTEMERGENCE, Rate 10 g/ha): 9
Plant response rating, Chickweed ([15]; POSTEMERGENCE, Rate 50 g/ha): 9
Plant response rating, Chickweed ([15]; PREEMERGENCE, Rate 10 g/ha): 10
Plant response rating, Chickweed ([15]; PREEMERGENCE, Rate 50 g/ha): 10
Plant response rating, Cheatgrass ([16]; POSTEMERGENCE, Rate 10 g/ha): 5
Plant response rating, Cheatgrass ([16]; POSTEMERGENCE, Rate 50 g/ha): 4
Plant response rating, Cheatgrass ([16]; PREEMERGENCE, Rate 10 g/ha): 3
Plant response rating, Cheatgrass ([16]; PREEMERGENCE, Rate 50 g/ha): 4
Plant response rating, Cotton ([17]; POSTEMERGENCE, Rate 10 g/ha): 10
Plant response rating, Cotton ([17]; POSTEMERGENCE, Rate 50 g/ha): 10
Plant response rating, Cotton ([17]; PREEMERGENCE, Rate 10 g/ha): 0
Plant response rating, Cotton ([17]; PREEMERGENCE, Rate 50 g/ha): 2
Plant response rating, Lambsquarter ([18]; POSTEMERGENCE, Rate 10 g/ha): 10
Plant response rating, Lambsquarter ([18]; POSTEMERGENCE, Rate 50 g/ha): 10
Plant response rating, Lambsquarter ([18]; PREEMERGENCE, Rate 50 g/ha): 10
Plant response rating, Wheat ([19]; POSTEMERGENCE, Rate 10 g/ha): 7
Plant response rating, Wheat ([19]; POSTEMERGENCE, Rate 50 g/ha): 7
Plant response rating, Wheat ([19]; PREEMERGENCE, Rate 50 g/ha): 7
Plant response rating, Barley ([20]; POSTEMERGENCE, Rate 10 g/ha): 4
Plant response rating, Barley ([20]; POSTEMERGENCE, Rate 50 g/ha): 6
Plant response rating, Barley ([20]; PREEMERGENCE, Rate 10 g/ha): 1
Plant response rating, Barley ([20]; PREEMERGENCE, Rate 50 g/ha): 1
Plant response rating, Wild oat ([21]; POSTEMERGENCE, Rate 10 g/ha): 6
Plant response rating, Wild oat ([21]; POSTEMERGENCE, Rate 50 g/ha): 7
Plant response rating, Wild oat ([21]; PREEMERGENCE, Rate 50 g/ha): 8
Plant response rating, Corn ([22]; POSTEMERGENCE, Rate 10 g/ha): 4
Plant response rating, Corn ([22]; POSTEMERGENCE, Rate 50 g/ha): 4
Plant response rating, Corn ([22]; PREEMERGENCE, Rate 50 g/ha): 0
Plant response rating, Rape ([23]; POSTEMERGENCE, Rate 10 g/ha): 10
Plant response rating, Rape ([23]; POSTEMERGENCE, Rate 50 g/ha): 10
Plant response rating, Rape ([23]; PREEMERGENCE, Rate 50 g/ha): 2
